Activity calls are given as the source filed them. How the calls were made is not given here.
Molecular target: Galanin receptor type 3 (Homo sapiens) (UniProt O60755)
Assay: human galanin receptor 3 blockers, IC50 – cell-based, fluorescence, dose response, late-stage follow-up (AID 743095)
Conditions: GalR3 cell line, fluorescence antagonist assay

For `O=C(CSc1nnc(Cn2nnc3ccccc32)o1)N(Cc1ccc(F)cc1)c1ccccc1`, which IC50 is on record?
Its IC50 is 1.24 µM.

For `COc1ccc(NS(=O)(=O)c2ccc(NC(=O)c3ccc(CN4CCOCC4)cc3)cc2)cc1`, which IC50 is on record?
Its IC50 is 3 µM.

`Nc1nonc1-n1nnc(C(=O)N/N=C/c2cc(Br)ccc2O)c1CSC1=NCCS1` was tested. Which IC50 did it give?
Its IC50 is 6.28 µM.

For `Cc1cc(C(=O)CSc2nc(N)cc(=O)[nH]2)c(C)n1-c1ccc(OC(F)F)cc1`, which IC50 is on record?
The IC50 was 1.35 µM.

`COc1cc2c(cc1OC)[C@@H]1C(=O)c3ccc4c(c3O[C@@H]1CO2)C[C@H](C(C)C)O4` was tested. Which IC50 did it give?
The IC50 was 0.0123 µM.

For `COc1ccc(OC)c(CCNC(=O)Cn2nc(C)c3c(C)n(-c4ccc(C)cc4)nc3c2=O)c1`, which IC50 is on record?
The IC50 was 3.8 µM.

With `CCCCCn1c(=O)[nH]c2cc(C(=O)N3CCN(Cc4ccc5c(c4)OCO5)CC3)ccc2c1=O` as the molecule, how does the IC50 read?
The IC50 was 0.143 µM.

Which IC50 does the source give for `CC(C)(C)c1ccc(C(=O)Nc2ccc(Oc3cccnc3)nc2)cc1` here?
Its IC50 is 1.14 µM.

Which IC50 does the source give for `CCOc1nc(C#N)nc(N2CCCCC2)n1` here?
The IC50 was 2.81 µM.

For `O=C(COc1ccc(C(=O)c2ccccc2)cc1)Nc1cccnc1`, which IC50 is on record?
Its IC50 is 1.24 µM.

Which IC50 does the source give for `Nc1cc(-c2ccc(Br)cc2)nn1Cc1ccccc1` here?
Its IC50 is 3.62 µM.

With `Cc1oc(-c2ccc(Cl)cc2)nc1CSCC(=O)NC1CCN(Cc2ccccc2)CC1` as the molecule, how does the IC50 read?
Its IC50 is 1.32 µM.

`CCCOc1ccc(CSc2nc3ccccc3[nH]2)cc1` was tested. Which IC50 did it give?
Its IC50 is 1.2 µM.

`CC(=O)c1ccc(N2CCN(C(=S)Nc3ccc(Oc4ccccc4)cc3)CC2)cc1` was tested. Which IC50 did it give?
Its IC50 is 1.23 µM.

`N#Cc1cc(-c2ccccc2)oc1NC(=O)c1ccco1` was tested. Which IC50 did it give?
The IC50 was “inactive”.

`CSc1ccc(C(=O)C2CCCN(C(=O)CCc3c(C)nn(C)c3C)C2)cc1` (configuration not stated) was tested. Which IC50 did it give?
The IC50 was 4.15 µM.

Which IC50 does the source give for `CC1CC(=O)NN=C1c1ccc(N)c([N+](=O)[O-])c1` (configuration not stated) here?
Its IC50 is 0.596 µM.

For `CCCOC(=O)c1ccc(OCC(O)Cn2c(C)nc3ccccc32)cc1` (configuration not stated), which IC50 is on record?
The IC50 was 3.27 µM.

Which IC50 does the source give for `NC(=O)c1nnn(Cc2cc(Cl)c(C(=O)c3ccc(Cl)cc3)c(Cl)c2)c1N` here?
Its IC50 is 3.44 µM.

Which IC50 does the source give for `CC1(C)CC2CC(C)(CN2S(=O)(=O)c2ccc(C(=O)Nc3cccc(S(=O)(=O)N4CCOCC4)c3)cc2)C1` (configuration not stated) here?
Its IC50 is 2.11 µM.

For `O=C(Nc1nc(-c2ccc(Cl)cc2Cl)cs1)c1ccc(OCC2CCCO2)cc1` (configuration not stated), which IC50 is on record?
Its IC50 is 1.08 µM.

`Cc1[nH]c(=O)c(C#N)cc1-c1ccccc1` was tested. Which IC50 did it give?
The IC50 was “inactive”.

How did the IC50 turn out when `O=C(Cc1ccc(Cl)cc1Cl)Nc1ccncc1Cl` was run?
The IC50 was 3.89 µM.

`COc1ccc(C(=O)CSc2nnc(Cn3cnc4ccccc43)o2)cc1` was tested. Which IC50 did it give?
Its IC50 is 3.18 µM.

Which IC50 does the source give for `COc1cc(CSc2nnnn2-c2ccc(C)cc2)cc(OC)c1OC` here?
Its IC50 is 3.44 µM.

How did the IC50 turn out when `COc1cccc2[nH]c3c(N4CCC(C)CC4)ncnc3c12` was run?
Its IC50 is 2.76 µM.

How did the IC50 turn out when `COc1ccc(-n2c(C)cc(C(=O)COC(=O)Cn3cnc4ccccc43)c2C)cc1` was run?
The IC50 was > 29.9 µM (inactive).

For `CC(C)(C)CN1CCN(Cc2nc(-c3ccc(F)cc3)cs2)CC1CCO` (configuration not stated), which IC50 is on record?
Its IC50 is 3.24 µM.

Which IC50 does the source give for `Cc1nn(C)c(Nc2ccc(Br)cc2)c1Br` here?
The IC50 was 4.14 µM.

`Cc1cc(CSc2ccccc2)ccc1NC(=O)c1ccc(CN2CCOCC2)cc1` was tested. Which IC50 did it give?
The IC50 was 0.529 µM.

How did the IC50 turn out when `Cn1nc(C(C)(C)C)cc1C(=O)NCc1ccc(N2CCCC2=O)cc1` was run?
Its IC50 is 5.27 µM.

`CC(=O)c1cn(CC(=O)NCCc2c[nH]c3ccccc23)c2ccccc12` was tested. Which IC50 did it give?
The IC50 was 4.14 µM.

With `S=C(NCCc1ccccc1)Nc1cccc2cnccc12` as the molecule, how does the IC50 read?
The IC50 was 2.62 µM.

Which IC50 does the source give for `CCOC(=O)Cc1csc(NC(=O)c2cc(=O)c3ccccc3o2)n1` here?
Its IC50 is 5.81 µM.

With `Cc1nc2ccccc2n1Cc1ccc(Cl)cc1` as the molecule, how does the IC50 read?
Its IC50 is 1.26 µM.

How did the IC50 turn out when `CCOC(=O)c1[nH]c2ccc(OC)cc2c1NS(=O)(=O)c1ccc(Cl)s1` was run?
The IC50 was 3.14 µM.

For `Cc1ccccc1-c1cc(C(=O)Nc2sc(C(=O)OC(C)C)c(C)c2C#N)c2ccccc2n1`, which IC50 is on record?
Its IC50 is 1.13 µM.

How did the IC50 turn out when `CNc1ccccc1C(C)(C)c1cc(-c2ccc(F)cc2)no1` was run?
The IC50 was 3.83 µM.

How did the IC50 turn out when `CCCCc1ccc(NC(=O)c2ccc(N(C)S(C)(=O)=O)cc2)cc1` was run?
Its IC50 is 0.696 µM.

For `Cc1ccc(Oc2ccc(OCC(=O)Nc3ccncc3)cc2)cc1`, which IC50 is on record?
Its IC50 is 0.428 µM.

For `CCN(CC)S(=O)(=O)c1cc(NC(=O)CNc2cccc(S(=O)(=O)N3CCOCC3)c2)ccc1C`, which IC50 is on record?
Its IC50 is 3.56 µM.

Which IC50 does the source give for `O=S(=O)(NCc1ccncc1)c1ccc(Br)s1` here?
The IC50 was 1.8 µM.

`Cc1nn(C)c(C)c1CN(C)S(=O)(=O)c1ccc2ccccc2c1` was tested. Which IC50 did it give?
Its IC50 is 1.23 µM.

How did the IC50 turn out when `COc1ccc(CN2CCC(C(=O)Nc3ccc(Oc4ccccc4)nc3)CC2)cc1F` was run?
Its IC50 is 6.97 µM.

For `COc1ccc(CCNc2ncnc3sccc23)cc1OC`, which IC50 is on record?
Its IC50 is 0.438 µM.

How did the IC50 turn out when `CC(C)(C)c1ccc(-n2ncc3c2CCCC3NC(=O)C2(C(N)=O)CC2)cc1` (configuration not stated) was run?
The IC50 was 2 µM.

With `O=C(CSc1nnnn1C1CC2CCC1C2)Nc1ccnc2ccccc12` (configuration not stated) as the molecule, how does the IC50 read?
The IC50 was 0.14 µM.

Which IC50 does the source give for `NC(=O)c1c(-c2ccc(Cl)cc2Cl)csc1NC(=O)Cc1ccccc1` here?
The IC50 was 2.37 µM.

`Cc1ccccc1Cn1c(C)nc2ccccc21` was tested. Which IC50 did it give?
The IC50 was 3.41 µM.

`Cc1cc(C)nc(SCC(=O)Nc2ccnc3ccccc23)n1` was tested. Which IC50 did it give?
The IC50 was 1.17 µM.

With `CCOc1cc(S(=O)(=O)NCc2ccncc2)ccc1Cl` as the molecule, how does the IC50 read?
Its IC50 is 0.269 µM.

Which IC50 does the source give for `COc1ccc(CN(C)c2ccc(S(=O)(=O)N3CCN(C)CC3)cc2[N+](=O)[O-])cc1OC` here?
Its IC50 is 0.448 µM.

How did the IC50 turn out when `Fc1ccc(NC(=S)N2CCCN(c3ccc(C(F)(F)F)cn3)CC2)c(F)c1` was run?
Its IC50 is 0.402 µM.

Which IC50 does the source give for `Cc1nn(C)c(Cl)c1NC(=O)OCc1ccc(Cl)cc1Cl` here?
The IC50 was 4.16 µM.

How did the IC50 turn out when `CC(C)(C)NC(=O)COC(=O)c1snc(C(=O)NC2CCCCC2)c1N` was run?
The IC50 was 3.19 µM.

How did the IC50 turn out when `CC(=O)c1c(C)[nH]c(C(=O)COc2cc(C)ccc2C(C)C)c1C` was run?
Its IC50 is 3.58 µM.

Which IC50 does the source give for `Cc1cccc(Cl)c1NC(=O)N1CCCN(c2nc3ccc(Cl)cc3s2)CC1` here?
Its IC50 is 1.95 µM.

Reference: PubChem BioAssay AID743095 (The Scripps Research Institute Molecular Screening Center, 2013)
